Data as given in article PMC8998618, “A Pharmacokinetic and Metabolism Study of the TRPC6 Inhibitor SH045 in Mice by LC-MS/MS” (International Journal of Molecular Sciences, 2022).
Read-outs that look alike come from different tables or passages of the source.

Experiments:
[1] = tissue distribution after single and repeated administration; assay type: in vivo, mice; details: for concentration at 24 h: 20 mg/kg, mean ± SEM
Description: Via heparin-coated catheters a maximum of 50 µL blood was collected from the tail vein at 0.25, 0.5, 1, 2, 3, 4, 6, 8, or 24 h after administration and immediately centrifuged at 4000× g at 4 °C for 10 min. For repeated administration 20 mg/kg BW SH045 were administered at 8:00 a.m. on five consecutive days, once a day. Blood was taken 1 h and 24 h after drug administration. Tissue samples were harvested from isoflurane-euthanized animals at indicated time points. Mice were transcardially perfused with PBS and dissected tissues were washed to remove remaining blood. Plasma and tissue samples were stored at −80 °C until analysis. Urine was collected by bladder puncture at indicated time points.
For tissue analysis, homogenates (10% in phosphate-buffered saline, PBS) were prepared. Homogenate, plasma, and urine were mixed with IS and extracted with ice-cold ACN, centrifuged, filtered and stored in the autosampler at 6 °C until analysis in duplicates by LC-MS/MS (details in Supplementary Materials SM4).
Larixyl-N-methylcarbamate ((1S,4S,4aR,8aS)-4-((S)-3-hydroxy-3-methylpent-4-en-1-yl)-4a,8,8-trimethyl-3-methylenedeca-hydro-naphthalen-1-yl methylcarbamate, SH045, TRPC6 inhibitor) was synthesized as described by Häfner et al. [1]. (+)-Larixol (internal standard, IS) was isolated from Larix decidua turpentine [2]. Kolliphor® EL was obtained from Caelo (Hilden, Germany). Acetonitrile (ACN), water, and formic acid (LC -MS grade each) were purchased from Fisher Scientific (Schwerte, Germany). Testo sterone, 4-nitrophenol, β-nicotinamide adenine dinucleotide 2′ -phosphate reduced tetrasodium salt hydrate (β-NADPH), uridine 5′-diphosphoglucuronic acid ammonium salt (UDPGA), pilocarpine, ticlopidine, quercetin, sulfaphenazole, fluvoxamine, quinidine, 4-methyl pyrazole, ketoconazole, alamethicin and Dulbecco’s phosphate-buffered saline (DPBS, pH 7.4) were obtained from Merck (Darmstadt, Germany). Ciprofloxacin was purchased from Bayer AG (Leverkusen, Germany). Liver microsomes from mice (CD-1, male, MLM) and human (pooled: 50 donors, HLM) were obtained from Fisher Scientific (Gibco, protein concentration: 20 mg/mL respectively). Syringe filters (Phenex, regenerated cellulose, pore-size 0.2 μm) were purchased from Phenomenex (Aschaffenburg, Germany) and centrifugal filter units (30 kDa) from Merck Millipore […]
SM2 Quantification of SH045 by HPLC and tandem mass spectrometric methods (LC-MS/MS) In brief, chromatographic separation was achieved using a Zorbax Eclipse XDB-C8 column (100 × 3.0 mm, 3.5 μm 80 Å, Agilent Technologies) with linear gradient elution using water and ACN, each with 0.1 % formic acid as additive, during a total run time of 20 min. For quantification (+)-larixol was used as IS. MS detection was achieved by multiple reaction monitoring (MRM) scan mode for SH045 (m/z 364.3/289.3) and IS (m/z 307.2/151.2), respectively. Further conditions and parameters were set as reported previously [3]. Freshly prepared calibration samples for SH045 in plasma and tissue comprised eight concentration levels analyzed in duplicates (2, 5, 10, 100, 200, 800, 1200 and 1600 ng/mL). For metabolism studies in microsomes, SH045 was dissolved in pure DMSO. […]
All analyses for metabolite identification included comparative measurements of appropriate control samples in order to avoid false-positive results.
SM3 Histopathological examination of tissue repeatedly exposed to SH045 Liver, kidney and lung were collected after repeated administration for inspection for histopathological changes, fixed in 4% paraformaldehyde solution and embedded in paraffin. Tissue slices (6 µm) of three animals either of untreated controls or such assigned to repeated administration of SH045 were deparaffinized and hematoxylin and eosin-stained. At least 5 slices per animal and tissue were microscopically examined using a light microscope (Zeiss, […]
SM4 Preparation of samples for analysis of SH045 and its metabolites by LC-MS/MS […]

[2] = tissue homogenate binding by ultrafiltration; assay type: in vitro ADME, mice; details: mean ± RSD
[3] = test system: ischemic lungs explanted from mice; parameters: method as in PMID 29522264; details: ex vivo; cited from earlier work

C=C[C@@](C)(O)CC[C@H]1C(=C)C[C@H](OC(=O)NC)[C@H]2C(C)(C)CCC[C@]12C [SH045, (1S,4S,4aR,8aS)-4-((S)-3-Hydroxy-3-methylpent-4-en-1-yl)-4a,8,8-trimethyl-3-methylenedecahydronaphthalen-1-yl methylcarbamate]
entry into the brain ([1]; 20 mg/kg i.v.): entered the brain
drug accumulation in tissues after repeated administration ([1]; 20 mg/kg i.v. five times once a day): no hints for drug accumulation
concentration at 24 h ([1]; male, C57BL/6, mouse, brain, iv, 24 h after repeated (5 days, once a day) 20 mg/kg BW i.v., read-out: Concentration, Brain): 19.6 ± 5.5 ng/g
concentration at 24 h ([1]; male, C57BL/6, mouse, brain, iv, 24 h after single (1×) 20 mg/kg BW i.v., read-out: Concentration, Brain): 14.8 ± 7.6 ng/g
concentration at 24 h ([1]; male, C57BL/6, mouse, fat, iv, 24 h after repeated (5 days, once a day) 20 mg/kg BW i.v., read-out: Concentration, Fat): 369 ± 50 ng/g
concentration at 24 h ([1]; male, C57BL/6, mouse, fat, iv, 24 h after single (1×) 20 mg/kg BW i.v., read-out: Concentration, Fat): 333 ± 61.2 ng/g
concentration at 24 h ([1]; male, C57BL/6, mouse, kidney, iv, 24 h after repeated (5 days, once a day) 20 mg/kg BW i.v., read-out: Concentration, Kidney): 17.8 ± 4.4 ng/g
concentration at 24 h ([1]; male, C57BL/6, mouse, kidney, iv, 24 h after single (1×) 20 mg/kg BW i.v., read-out: Concentration, Kidney): 14.8 ± 5.9 ng/g
concentration at 24 h ([1]; male, C57BL/6, mouse, liver, iv, 24 h after repeated (5 days, once a day) 20 mg/kg BW i.v., read-out: Concentration, Liver): 17.5 ± 4.6 ng/g
concentration at 24 h ([1]; male, C57BL/6, mouse, liver, iv, 24 h after single (1×) 20 mg/kg BW i.v., read-out: Concentration, Liver): 14.2 ± 5.2 ng/g
Kp ([1]; male, C57BL/6, mouse, lung, iv, 20 mg/kg BW, after i.v. administration, read-out: first-pass uptake into the lung relative to respective plasma concentration): ~20
concentration at 24 h ([1]; male, C57BL/6, mouse, lung, iv, 24 h after repeated (5 days, once a day) 20 mg/kg BW i.v., read-out: Concentration, Lung): 2390 ± 1020 ng/g
concentration at 24 h ([1]; male, C57BL/6, mouse, lung, iv, 24 h after single (1×) 20 mg/kg BW i.v., read-out: Concentration, Lung): 2170 ± 414 ng/g
Tissue binding ([2]; kidney homogenate 1:10, SH045 1 µg/mL, 30 min): 97.6 ± 0.9%
Tissue binding ([2]; kidney homogenate 1:10, SH045 1 µg/mL, 60 min): 97.8 ± 0.4%
Tissue binding ([2]; kidney homogenate 1:10, SH045 1 µg/mL, 120 min): 98.3 ± 0.2%
Tissue binding ([2]; kidney homogenate 1:10, SH045 1 µg/mL, 240 min): 98.3 ± 0.1%
Tissue binding ([2]; liver homogenate 1:10, SH045 2 µg/mL, 30 min): 99.4 ± 0.1%
Tissue binding ([2]; liver homogenate 1:10, SH045 2 µg/mL, 60 min): 97.1 ± 1.0%
Tissue binding ([2]; liver homogenate 1:10, SH045 2 µg/mL, 120 min): 99.0 ± 0.1%
Tissue binding ([2]; liver homogenate 1:10, SH045 2 µg/mL, 240 min): 97.8 ± 0.9%
Tissue binding ([2]; lung homogenate 1:10, SH045 50 µg/mL, 30 min): 93.5 ± 1.2%
Tissue binding ([2]; lung homogenate 1:10, SH045 50 µg/mL, 60 min): 94.9 ± 0.1%
Tissue binding ([2]; lung homogenate 1:10, SH045 50 µg/mL, 120 min): 97.8 ± 0.5%
Tissue binding ([2]; lung homogenate 1:10, SH045 50 µg/mL, 240 min): 97.4 ± 0.8%
edema formation after reperfusion [3]: reduced edema formation
